Test: Luciferase Assay: Using ONE-Glo Luciferase Assay System (Promega Corporation, No. E6110), the luciferase activity of the cells in the wells was measured by a microplate reader (Synergy H1, BioTek Instruments, Inc.) An IC50 value was calculated from the luminescence intensity of each compound concentration, supposing that the luminescence intensity of a group with no addition of the compound and with Wnt-3a stimulation was 100%, and that the luminescence intensity of a group with no addition of the compound and with no Wnt-3a stimulation was 0%.
Conditions: Homo sapiens

Structure (SMILES) | IC50
Cc1nc2c(C)cc(Nc3ncc4cccc(O[C@H]5CC[C@@H](O)CC5)c4n3)cc2[nH]1 | in the range around 650 nM
Cc1nc2c(Br)cc(Nc3ncc4cccc(O[C@H]5CC[C@@H](O)CC5)c4n3)cc2[nH]1 | in the range around 2000 nM
OCc1n[nH]c2cc(Nc3ncc4ccc(F)c(O[C@H]5CC[C@@H](O)CC5)c4n3)ccc12 | < 300 nM
Cc1ccc2cnc(Nc3ccc4nc[nH]c4c3)nc2c1O[C@H]1CC[C@@H](O)CC1 | in the range around 650 nM
COCc1nc2ccc(Nc3ncc4cccc(O[C@H]5CC[C@@H](O)CC5)c4n3)cc2[nH]1 | in the range around 650 nM
O[C@H]1CC[C@@H](Oc2c(Br)ccc3cnc(Nc4ccc5nc[nH]c5c4)nc23)CC1 | < 300 nM
O[C@H]1CC[C@@H](Oc2c(F)ccc3cnc(Nc4ccc5ncsc5c4)nc23)CC1 | < 300 nM
OCc1nc2cc(Nc3ncc4cccc(O[C@H]5CC[C@@H](O)CC5)c4n3)ccc2[nH]1 | in the range around 650 nM
O[C@H]1CC[C@@H](Oc2cccc3cnc(Nc4ccc5nc(C(F)(F)F)[nH]c5c4)nc23)CC1 | in the range around 2000 nM
Cc1nc2ccc(Nc3ncc4ccc(Br)c(O[C@H]5CC[C@@H](O)CC5)c4n3)cc2[nH]1 | in the range around 650 nM
OCc1cc(Nc2ncc3cccc(O[C@H]4CC[C@@H](O)CC4)c3n2)cc2[nH]cnc12 | < 300 nM
O[C@H]1CC[C@@H](Oc2cc(F)cc3cnc(Nc4ccc5nc[nH]c5c4)nc23)CC1 | in the range around 650 nM
O[C@H]1CC[C@@H](Oc2cccc3cnc(Nc4ccc5[nH]c(CN6CCCC6)nc5c4)nc23)CC1 | < 300 nM
C[C@H](O)c1nc2ccc(Nc3ncc4cccc(O[C@H]5CC[C@@H](O)CC5)c4n3)cc2[nH]1 | in the range around 650 nM

Continued, values first:

IC50 | Structure (SMILES)
< 300 nM | O[C@H]1CC[C@@H](Oc2cccc3cnc(Nc4ccc5nc[nH]c5c4)nc23)CC1
< 300 nM | O[C@H]1CC[C@@H](Oc2cccc3cnc(Nc4ccnc5ccccc45)nc23)CC1
in the range around 2000 nM | O[C@H]1CC[C@@H](Oc2cccc3cnc(Nc4ccc5ccncc5c4)nc23)CC1
in the range around 650 nM | O[C@H]1CC[C@@H](Oc2cccc3cnc(Nc4ccc5cnccc5c4)nc23)CC1
in the range around 650 nM | Cc1cc2nc[nH]c2cc1Nc1ncc2cccc(O[C@H]3CC[C@@H](O)CC3)c2n1
in the range around 650 nM | O[C@H]1CC[C@@H](Oc2cccc3cnc(Nc4cccc5cnccc45)nc23)CC1
in the range around 650 nM | O[C@H]1CC[C@@H](Oc2cccc3cnc(Nc4ccnc5cc(F)ccc45)nc23)CC1
< 300 nM | O[C@H]1CC[C@@H](Oc2c(F)ccc3cnc(Nc4ccc5ncccc5c4)nc23)CC1
in the range around 650 nM | O[C@H]1CC[C@@H](Oc2cccc3cnc(Nc4ccc5ncccc5c4)nc23)CC1
< 300 nM | O[C@H]1CC[C@@H](Oc2cccc3cnc(Nc4ccc5scnc5c4)nc23)CC1
in the range around 650 nM | Cc1ccc2cc(Nc3ncc4cccc(O[C@H]5CC[C@@H](O)CC5)c4n3)ccc2n1
in the range around 650 nM | COc1ccc2c(Nc3ncc4cccc(O[C@H]5CC[C@@H](O)CC5)c4n3)ccnc2c1

Reference: ChEMBL document CHEMBL5725332, “Quinazoline derivative” (2017)
